Data published in ChEMBL document CHEMBL1201862, “PubChem BioAssay data set” (2004).
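Growth conditions: 96-well plates. Treatment: test compound, 48 hours, 5 concentrations. Analysis: linear interpolation between bracketing concentrations; unreached endpoints set to highest concentration. GI50: concentration for 50% inhibition of growth.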 The source made the active and inactive calls. Rule as the data show it: active = GI50 up to about 1.1 µM and inactive = higher.

Experiments:
Experiment in all cases: DTP human tumour cell line panel, 48 h
SF-268 = tested on: SF-268
NCI-H460 = tested on: NCI-H460
MCF7 = tested on: MCF7
SF-539 = tested on: SF-539
OVCAR-8 = tested on: OVCAR-8
UACC-257 = tested on: UACC-257
DU-145 = tested on: DU-145
IGROV-1 = tested on: IGROV-1
SK-OV-3 = tested on: SK-OV-3
HOP-92 = tested on: HOP-92
Hs-578T = tested on: Hs-578T
NCI/ADR-RES = tested on: NCI/ADR-RES
COLO 205 = tested on: COLO 205
KM12 = tested on: KM12
U-251 = tested on: U-251
A549 = tested on: A549
CAKI-1 = tested on: CAKI-1
NCI-H226 = tested on: NCI-H226
LOX IMVI = tested on: LOX IMVI

Measured: GI50

O=C(Cc1ccccc1CCO)NCCc1ccccc1
inactive: SF-268 > 100 µM | NCI-H460 > 100 µM | MCF7 > 100 µM | SF-539 > 100 µM | OVCAR-8 > 100 µM | UACC-257 > 100 µM | DU-145 > 100 µM | IGROV-1 > 100 µM | SK-OV-3 > 100 µM | HOP-92 > 100 µM | Hs-578T > 100 µM | NCI/ADR-RES > 100 µM | COLO 205 > 100 µM | KM12 > 100 µM | U-251 > 100 µM | A549 > 100 µM | CAKI-1 > 100 µM | NCI-H226 > 100 µM

COc1cc(Oc2nc3ccccc3nc2C(=O)O)cc(OC)c1OC
inactive: SF-268 > 100 µM | NCI-H460 > 100 µM | OVCAR-8 > 100 µM | LOX IMVI > 100 µM | UACC-257 > 100 µM | DU-145 > 100 µM | IGROV-1 > 100 µM | SK-OV-3 > 100 µM | HOP-92 > 100 µM | Hs-578T > 100 µM | NCI/ADR-RES > 100 µM | COLO 205 > 100 µM | KM12 > 100 µM | U-251 > 100 µM | A549 > 100 µM | CAKI-1 > 100 µM | NCI-H226 > 100 µM

CC(C)OP(=S)(NC(=S)c1ccccc1)OC(C)C
inactive: SF-268 > 100 µM | NCI-H460 59 µM | SF-539 > 100 µM | OVCAR-8 > 100 µM | LOX IMVI > 100 µM | UACC-257 > 100 µM | IGROV-1 > 100 µM | SK-OV-3 > 100 µM | HOP-92 > 100 µM | COLO 205 > 100 µM | KM12 > 100 µM | U-251 > 100 µM | A549 > 100 µM | CAKI-1 > 100 µM | NCI-H226 > 100 µM

Cc1[nH]n(C2=NCCN2)c(=O)c1C
inactive: SF-268 > 100 µM | NCI-H460 > 100 µM | MCF7 > 100 µM | SF-539 > 100 µM | OVCAR-8 > 100 µM | LOX IMVI > 100 µM | UACC-257 > 100 µM | IGROV-1 > 100 µM | SK-OV-3 > 100 µM | HOP-92 > 100 µM | Hs-578T > 100 µM | NCI/ADR-RES > 100 µM | COLO 205 > 100 µM | KM12 > 100 µM | U-251 > 100 µM | A549 > 100 µM | CAKI-1 > 100 µM | NCI-H226 > 100 µM
